One experiment has as its system splenic CD8+ cDC. The experiment is described as follows: In vitro stimulation of sorted splenic CD8+ cDCs, cytokines in supernatant (IFN-λ ELISA, IL-12p70 FlowCytomix). It counts as cell-based, mouse. To be noted: 5×10^5/ml, IL-3 and GM-CSF, supernatants after 18 h. The source says:
(§1) DC subsets were isolated from pooled mouse spleens as described (Vremec et al., 2007). Briefly, spleens were chopped, digested with collagenase (Worthington Biochemical) and DNase (Roche) at room temperature, and treated with EDTA. Low-density cells were enriched by density centrifugation; non-DC lineage cells were coated with mAbs (anti-CD3, KT3-1.1; anti-Thy-1, T24/31.7; anti Gr-1, 1A8; anti-CD19, ID3; anti-erythrocytes, TER119 and anti-NK cells, DX5) and depleted using anti-rat Ig magnetic beads (Qiagen). Dead cells were excluded by propidium iodide staining. cDC populations were sorted based on the expression of CD11c, CD45RA, CD4, CD8a and CD172a and pDCs were purified based on CD11c, CD45RA, and CD172a (all BD Biosciences) expression. Cell sorting was performed on a FACS Aria instrument (BD Biosciences).
Cells were stimulated in vitro with single TLR agonists or combinations thereof containing 10 μg/ml Pam3Cys (InvivoGen), 100 μg/ml poly IC (Axxora), 10 μg/ml LPS (E. coli; Sigma-Aldrich or Axxora), 10 μg/ml R848 (Axxora), 1 μM CpG-1668 or CpG-2216 (TIB-Molbiol), 1 μg/ml profilin of toxoplasma (Axxora). The recombinant cytokines mouse-IL-3, mouse-IL-4, rat-IFN-γ (PeproTech) and mouse-GM-CSF (Tebu-Bio) (10 ng/ml each) were added as indicated. The addition of IL-3 and GM-CSF was based on previous observations that GM-CSF promoted the production of IL-12p70 and that the combination of IL-3 and GM-CSF increased virus induced IFN-λ production in pDCs and cDCs (Hochrein et al., 2000; Hochrein et al., 2004). As source of a parapoxvirus Zylexis, which is used for veterinary purposes was purchased from a pharmacy. HSV-1, in replication deficient form known as disc HSV-1 (HSV-1d) was used as described (Hochrein et al., 2004). IFN-λ in supernatants was analyzed by ELISA and IL-12p70 was determined by FlowCytomix bead assay (Bender Medsystems) according to manufacturer's protocol.
(ELISA stands for enzyme-linked immunosorbent assay.)

The test system of the next experiment is splenic pDCs. The experiment is described as follows: In vitro stimulation of sorted splenic pDCs, IFN-λ ELISA. It counts as cell-based, mouse. The note with it: 5×10^5/ml, IL-3 and GM-CSF, 18 h.
Description: as §1
(§2) Cells were stimulated in vitro with single TLR agonists or combinations thereof containing 10 μg/ml Pam3Cys (InvivoGen), 100 μg/ml poly IC (Axxora), 10 μg/ml LPS (E. coli; Sigma-Aldrich or Axxora), 10 μg/ml R848 (Axxora), 1 μM CpG-1668 or CpG-2216 (TIB-Molbiol), 1 μg/ml profilin of toxoplasma (Axxora). […] IFN-λ in supernatants was analyzed by ELISA and IL-12p70 was determined by FlowCytomix bead assay (Bender Medsystems) according to manufacturer's protocol.

The subject of another experiment is mice. As to the kind of experiment: In vivo challenge (i.v.), serum IFN-λ and IFN-α by ELISA. More on the design: species or system mouse. To be noted: 100 μg i.v. As to the method: Mice were injected i.v. into the lateral tail vein with 100 μg poly IC (Axxora) and serum was collected 3-4 h after challenge. Sera were pre-diluted 1/5, […] was analyzed by ELISA as described (Hochrein et al., 2004). IFN-λ was determined by an IFN-λ3 (IL-28B) ELISA (R&D Systems).

The next experiment concerns CD8-cDCs. The experiment is described as follows: In vitro stimulation of sorted splenic CD8- cDCs, IFN-λ ELISA. It counts as cell-based, mouse. To be noted: 5×10^5/ml, IL-3 and GM-CSF, 18 h.
Description: as §1, §2

For another experiment, the system named is eCD8α cDCs. The experiment is described as follows: In vitro stimulation of FL expanded ex-vivo isolated splenic eCD8α cDCs, IFN-λ. It counts as cell-based, mouse. To be noted: 5×10^5/ml, IL-3+GM-CSF+IL-4+IFN-γ, 100 μg/ml, 18 h. The procedure:
FIG. 13 depicts that in vivo FL expanded CD8α+cDCs and eCD8α cDCs selectively produce IFN-λ to poly AU in vitro. Highly purified FL expanded ex-vivo isolated splenic 5×10^5/ml were stimulated in the presence of IL-3+GM-CSF+IL-4+IFN-γ with either poly IC (100 μg/ml) or poly AU (100 μg/ml). After 18 h supernatants were analyzed for IFN-λ.
To see if the IFN-λ production to poly AU seen in vivo would correspond with the same cells as in response to poly IC we enhanced the amount of DC in mice with FL treatment and sorted CD8α+ cDCs, eCD8α cDCs and CD11b+/CD172a+cDCs. Those cells were stimulated with poly IC or poly AU.

The subject of a further experiment is PBMC. The experiment is described as follows: Stimulation of human PBMC, IFN-λ1 and IFN-λ2 ELISA. It counts as cell-based. To be noted: PBMCs and fractions of DC-enriched PBMCs, IL-3, GM-CSF and IFN-γ, 18-24 h. The procedure:
(§3) PBMC were prepared from peripheral blood of non-atopic blood donors by density gradient centrifugation and BDCA3+ DC were purified from PBMC using the BDCA3/CD141+Dendritic Cell Isolation Kit (Miltenyi Biotech) on an AutoMACS™ separator. Subsequently, BDCA1+ DC were purified from the BDCA3-depleted PBMC using the BDCA1/CD1c+ Dendritic Cell Isolation Kit (Miltenyi Biotech). […] After stimulation for 18-24 h the supernatants were analyzed for IFN-λ1 and IFN-λ2 by ELISA according to manufacturer's recommendations (Tebu-bio).

Experiment [1] deals with total non parenchymal liver cells. The experiment is described as follows: In vitro stimulation of total non parenchymal liver cells, IFN-λ and IL-12p70. It counts as cell-based, mouse. The note with it: liver cells from WT mice, 2.5×10^6/ml, IL-3+IL-4+IFN-γ+GM-CSF, 18 h. The procedure: FIGS. 3A and B depict that FL is involved in the production of IFN-λ in vivo. (A) Isolated total non parenchymal liver cells 2.5×10^6/ml were stimulated in the presence of IL-3+IL-4+IFN-γ+GM-CSF with the stimuli as indicated. After 18 h supernatants were analyzed for IFN-λ and IL-12p70. Representative results of 3 experiments are shown. Data represent mean+/−SD of duplicate samples. (B) WT and FL-KO mice were injected i.v. with 100 μg poly IC. After 3-4 h sera were analyzed for IFN-λ and IFN-α. Circles indicate the results of individual mice and columns represent the mean thereof.
as §2, with “(Axxora). The recombinant cytokines mouse-IL-3, mouse-IL-4, rat-IFN-γ (PeproTech) and mouse-GM-CSF (Tebu-Bio) (10 ng/ml each) were added as indicated.” for “(Axxora).”, “protocol. […]” for “protocol.”

In a further experiment the test system is BDCA3+ DC. As to the kind of experiment: Stimulation of human BDCA3+ DC, IFN-λ1 and IFN-λ2 ELISA. It counts as cell-based. The note with it: BDCA3 positive cells vs BDCA1 cells, all donors, 100 μg/ml, 18-24 h. As to the method: as §3

“Also recorded” adds a separate entry of the source.

In the case of “Polyinosinic:polycytidylic acid [poly IC]”, the IFN-λ production result in the experiment on splenic CD8+ cDC is recorded as “major producers; also recorded: induced IFN-λ”; in the experiment on splenic pDCs, “largely unable to participate in IFN-λ production”; in the experiment on CD8-cDCs, “largely unable to participate in IFN-λ production”; in the experiment with eCD8α cDCs, “able to produce IFN-λ”; in experiment [1], “produced IFN-λ”. Also, in the experiment on splenic CD8+ cDC, the IL-12p70 production entry is recorded as “not IL-12p70 production”. Moreover, the “serum IFN-λ, dependence on hematopoietic cells, FL and IRF8” value in the experiment with mice (BM reconstituted, IL-15R-KO, RAG1-KO, FL-KO, IRF8-KO vs WT mice (FIG. 16), 3-4 h) was “depends on hematopoietic cells, FL and IRF8”. For the same substance, the “Serum levels of IFN-λ” value with mice (FL-KO mice, 3-4 h) was “almost abrogated”; with mice (WT mice, sera after 3-4 h), “easily detectable; also recorded: Large amounts”. The “serum IFN-λ” value is on record as “largely reduced” in the experiment with mice (IRF7-KO mice, 3-4 h) and “abrogated IFN-λ production” in the experiment on mice (TLR3-KO mice, 3-4 h). In addition, the “serum IFN-λ, dependence on IRF3 and IRF7” value in the experiment with mice (mice of indicated genotype (FIG. 15), 3-4 h) is “depends on IRF3 and IRF7”. Besides, in the experiment with PBMC, the “IFN-λ1 (IL-29) production” value is recorded as “induced”. In the experiment with PBMC, the “IFN-λ2 (IL-28A) production” value is listed as “induced”. The IFN-λ1 production entry in the experiment with BDCA3+ DC is given as “major producers”. Moreover, the IFN-λ2 production entry with BDCA3+ DC is “major producers”.

Values taken from patent US9090897B2, “Production of IFN-lambda by conventional dendritic cells” (Bavarian Nordic A/S, priority 2009, dated 2015).
